Values joined by “and” are separate entries in the source; they are usually repeats but may differ in a detail not shown here. Identical values can stand only once.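 Interpolation was linear, between the two tested concentrations surrounding the appropriate level; five concentrations were tested over 48 hours in 96-well plates. At the GI50, growth is halved. TGI denotes the concentration required for complete inhibition of growth.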
Assays:
Test in all cases: inhibition of tumour cell growth, NCI panel, 48 h
SR leukemia = test system: SR leukemia
MCF7 breast = test system: MCF7 breast
NCI-H226 lung = test system: NCI-H226 lung
MOLT-4 leukemia = test system: MOLT-4 leukemia
HL-60(TB) leukemia = test system: HL-60(TB) leukemia
OVCAR-8 ovarian = test system: OVCAR-8 ovarian
HCC-2998 colon = test system: HCC-2998 colon
NCI-H522 lung = test system: NCI-H522 lung
M14 melanoma = test system: M14 melanoma
SK-MEL-28 melanoma = test system: SK-MEL-28 melanoma

| SMILES | GI50 (SR leukemia) [µM] | TGI (SR leukemia) [µM] | GI50 (MCF7 breast) [µM] | TGI (MCF7 breast) [µM] | GI50 (NCI-H226 lung) [µM] | TGI (NCI-H226 lung) | GI50 (MOLT-4 leukemia) [µM] | TGI (MOLT-4 leukemia) | GI50 (HL-60(TB) leukemia) [µM] | TGI (HL-60(TB) leukemia) | GI50 (OVCAR-8 ovarian) [µM] | TGI (OVCAR-8 ovarian) [µM] | GI50 (HCC-2998 colon) [µM] | TGI (HCC-2998 colon) [µM] | GI50 (NCI-H522 lung) [µM] | TGI (NCI-H522 lung) [µM] | GI50 (M14 melanoma) [µM] | TGI (M14 melanoma) [µM] | GI50 (SK-MEL-28 melanoma) [µM] | TGI (SK-MEL-28 melanoma) [µM] |
| --- | --- | --- | --- | --- | --- | --- | --- | --- | --- | --- | --- | --- | --- | --- | --- | --- | --- | --- | --- | --- |
| O=S(=O)(Nc1ccc(Cl)cc1Cl)c1ccc(-c2cnc(C3CC3)o2)cc1 | 0.42 | > 58.9 | 0.35 | 41.2 | 1.37 | 31.1 µM | 0.692 | > 100 µM | 0.351 | 9.41 µM | 1.79 | > 82.1 | 1.6 | 16.5 | 0.435 | 17.3 | 0.473 | > 88.2 | 3.28 | > 78.8 |
| CCOC(=O)c1c(-c2ccc(OC)cc2)c(C#N)c2c(C#N)c(N)nn2c1N | 2.05 | > 100 | 3.31 | > 100 | 3.62 | > 100 µM | 4.07 | > 100 µM | 3.33 | > 100 µM | 4.27 | > 100 | 7.64 | > 100 | 2.55 | 12.5 | 3.26 | 25.9 | 5.41 | > 100 |
| Cc1ccc(Nc2oc(-c3ccccc3)nc2[P+](c2ccccc2)(c2ccccc2)c2ccccc2)cc1 | 0.698 | 2.44 | 0.433 | 1.98 | – | – | 0.563 | 2.52 µM | 0.425 | 1.39 µM | 1.04 | 3.34 | 1.03 | 2.4 | 0.45 | 1.79 | 0.728 | 2.11 | 1.19 | 2.55 |
| O=[N+]([O-])c1ccc(CI)cc1 | 2.24 | 10.3 | 3.08 | 17.2 | 5.66 | 23.5 µM | 1.32 | 7.21 µM | 2.24 | 5.22 µM | 3.71 | 13.3 | 3.43 | 11.8 | 1.41 | 3.02 | 3.38 | 13.5 | 5.15 | 18.2 |
| C[C@@]12CCC[C@@](C)(C(=O)O)C1CC[C@]13CC(=O)[C@](CO)(C1)[C@@H](O)CC32 (stereo partly specified) | > 100 | > 100 | > 100 | > 100 | > 100 | > 100 µM | > 100 | > 100 µM | > 100 | > 100 µM | > 100 | > 100 | > 100 | > 100 | > 100 | > 100 | > 100 | > 100 | > 100 | > 100 |
| O=C1c2cccc3cccc(c23)C(=O)N1CCCCCN1CCN(CCCCCOc2ccc(-c3nc4ccc(N5CCOCC5)cc4[nH]3)cc2)CC1 | 1.18 | 3.2 | 2.49 | 8 | 7.24 | 30.2 µM | 0.264 | 2.29 µM | 0.372 | > 19.9 µM | 1.32 | 4.95 | 36.5 | > 91 | > 49 | > 68.5 | – | – | 13 | 25.7 |
| CC1(Br)Cc2ccccc2C1=O (stereo unspecified) | 0.129 | 1.25 | 2.22 | 8.52 | – | 5.93 µM | 0.423 | 9.91 µM and 3.4 µM | 0.495 | 6.67 µM and 2.35 µM | 4.11 | 15.7 | – | > 100 | 0.318 | 1.41 | 1.08 | 4.4 | – | 7.68 |
| O=[N+]([O-])c1cccc2ccc(N/N=C/c3ccccc3O)nc12 | 0.148 | 7.03 | 2.34 | > 100 | > 100 | > 100 µM | 0.313 | 1.16 µM | 1.74 | > 100 µM | > 100 | > 100 | > 100 | > 100 | – | > 39.6 | > 100 | > 100 | > 100 | > 100 |
| CSc1nc(NC2OC(COC(C)=O)C(OC(C)=O)C(OC(C)=O)C2OC(C)=O)c(N=CC=Nc2c(NC3OC(COC(C)=O)C(OC(C)=O)C(OC(C)=O)C3OC(C)=O)nc(SC)n(C)c2=O)c(=O)n1C (stereo unspecified) | > 50 | > 100 | > 50 | > 100 | – | > 50 µM and 97.8 µM | > 50 | > 100 µM | > 50 | > 100 µM | > 50 | > 100 | > 50 | > 100 | > 50 | > 100 | > 50 | > 50 | > 50 | > 100 |
| COC(=O)C1=CN(CC2=CC(=O)C(C)=CC2=O)C=C(C(=O)OC)C1c1cccc(OC)c1 | 4.74 | 35 | 16 | > 100 | 20 | 62.2 µM | 3.11 | > 100 µM | 4.76 | > 100 µM | > 51.9 | > 100 | 12.5 | 32.6 | 8.19 | > 31.9 | 18.6 | 35.6 | 25 | 79 |
| CCOC(=O)/C=C/c1ccc(C#Cc2ccccc2)cc1 | 10.3 | > 100 | > 100 | > 100 | > 100 | > 100 µM | > 100 | > 100 µM | > 100 | > 100 µM | > 100 | > 100 | > 100 | > 100 | – | – | > 100 | > 100 | > 100 | > 100 |
| CN(C)c1ccc(N=Nc2ccccn2)c(O)c1 | 0.123 | > 100 | 0.271 | > 100 | 0.515 | 8.67 µM | 0.243 | > 87.8 µM | 0.228 | 1.46 µM | 0.321 | > 100 | 0.376 | > 100 | 0.372 | – | – | – | 0.672 | > 100 |

Source: PubChem BioAssay (NCI)
